PMC11385396 (Journal of Ginseng Research, 2024)

Tests used:
Assay type in all cases: in vivo, Sprague-Dawley rats
[1] = tested on: coagulation factor II; assay: Plasma coagulation factor II in rats; conditions: 12h after last dose of one week gavage
[2] = Coagulation function; conditions: rats, 12h after last dose of one week gavage; compared with the control group
[3] = tested on: coagulation factor X; assay: Plasma coagulation factor X in rats; conditions: 12h after last dose of one week gavage

## CC(=O)CC(c1ccccc1)c1c(O)c2ccccc2oc1=O (stereo not shown) [Warfarin]
[1]
  plasma coagulation factor II: reduce
[2]
  APTT: significantly increased
  INR: significantly increased
[3]
  plasma coagulation factor X: reduce
